Data as given in ChEMBL document CHEMBL1149567, “Synthesis and pharmacological evaluation of condensed heterocyclic 6-substituted-1,2,4-triazolo[3,4-b]-1,3,4-thiadiazole derivatives of naproxen” (Bioorg Med Chem Lett, 2007).

What was measured:
Rattus norvegicus [1] = test: Toxicity assessed as ulcerogenic activity in po dosed rat; type: organism-based; conditions: in vivo
Rattus norvegicus [2] = test: Antiinflammatory activity against carrageenan-induced paw edema in po dosed rat after 4 hrs; type: functional
Rattus norvegicus [3] = test: Analgesic activity in po dosed rat; type: functional
Rattus norvegicus [4] = species on record: Rattus norvegicus; test: Effect on lipid peroxidation in rat gastric mucosa assessed as malondialdehyde level per 100 mg of tissue; type: functional, organism-based
Rattus norvegicus [5] = test: Antiinflammatory activity against carrageenan-induced paw edema in rat at 30 mg/kg, po after 4 hrs; conditions: read-out: Inhibition
Rattus norvegicus [6] = test: Analgesic activity in rat at 30 mg/kg, po; conditions: read-out: Inhibition

Structure (SMILES) | UI (Rattus norvegicus [1]) | Inhibition (Rattus norvegicus [2]) [%] | Inhibition (Rattus norvegicus [3]) [%] | Activity (Rattus norvegicus [4]) [nmol] | inhibition in vivo at 30 mg/kg (Rattus norvegicus [5]) [%] | inhibition in vivo at 30 mg/kg (Rattus norvegicus [6]) [%]
COc1ccc2cc(C(C)c3nnc4sc(-c5ccc(N)cc5)nn34)ccc2c1 (stereo unspecified) | 0.833 | 78.02 | 58.1 | 5.85 | – | –
COc1ccc2cc(C(C)c3nnc4sc(Nc5ccccc5)nn34)ccc2c1 (stereo unspecified) | – | 43.93 | – | – | – | –
COc1ccc2cc(C(C)c3nnc4sc(Nc5ccc(F)cc5)nn34)ccc2c1 (stereo unspecified) | – | 40.14 | – | – | – | –
COc1ccc2cc(C(C)c3nnc4sc(Nc5ccc(C)cc5C)nn34)ccc2c1 (stereo unspecified) | 0.833 | 76.51 | 33.3 | 6.11 | – | –
CCCCNc1nn2c(C(C)c3ccc4cc(OC)ccc4c3)nnc2s1 (stereo unspecified) | – | 40.9 | – | – | – | –
COc1ccc2cc(C(C)c3nnc4sc(-c5ccccc5N)nn34)ccc2c1 (stereo unspecified) | – | 54.54 | – | – | – | –
COc1ccc2cc(C(C)c3nnc4sc(-c5ccc(Cl)cc5Cl)nn34)ccc2c1 (stereo unspecified) | 0.75 | 68.93 | 37.2 | 5.63 | – | –
COc1ccc2cc(C(C)c3nnc4sc(-c5ccccc5)nn34)ccc2c1 (stereo unspecified) | 0.5 | 81.05 | 89.5 | 4.86 | – | –
COc1ccc2cc(C(C)c3nnc4sc(-c5ccc(Cl)cc5)nn34)ccc2c1 (stereo unspecified) | 0.583 | 80.3 | 26.7 | 5.27 | – | –
COc1ccc2cc([C@H](C)C(=O)O)ccc2c1 [NAPROXEN] | – | – | – | 9.04 | 81.8 | 73.5
COc1ccc2cc(C(C)c3nnc4sc(COc5ccc(Cl)cc5Cl)nn34)ccc2c1 (stereo unspecified) | 0.667 | 78.02 | 80.3 | 5.38 | – | –
